The source of these data is patent publication US20240299321A1, “METHODS TO SENSITIZE CANCER CELLS AND STANDARDIZED SCREENING ASSAY FOR IMMUNOTHERAPY” (THE TRUSTEES OF INDIANA UNIVERSITY, priority 2020, published 2024).

Assay [1] relates to EO771 (Luc+OVA+) tumor organoids. Briefly: Toxicity on tumor organoids without T cells (WST-1 viability). Conditions: no T cells. The class given is cell-based, mouse. As for the experimental part: Tumor cell viability assay: For 2D tumor cell culture, tumor cells were seeded into 96 well plates at 2,000 cells per well and cultured for 72 h. For tumor organoids, tumor organoids with diameter between 70 and 150 μm were seeded at 50 organoids per well into 96-well microplates with ultra-low attachment surface (Corning). Cells or tumor organoids were treated with indicated compound at the final concentration of 1 μM. After 3-day culture, tumor organoids were dissociated into single cells using TrypLE Express (Corning) at 37° C. with a shaking velocity of 500 rpm on a thermomixer (Eppendorf) for 15 min. The 96-well microplates were added with 10 μl/well of Premix WST-1 reagent (TaKaRa) and incubated for 1 h. The microplates were read at absorbance of 450 nm on the Epoch microreader (BioTek). The toxicity of the epigenetic drugs was quantified using the premix WST-1 reagent according to the manufacturer's protocol.

The subject of assay [2] is NY-ESO-1-specific CD8+ T cells. Briefly: T cell effector function in MDA-MB-468 organoid co-culture. It counts as cell-based, human. The note with it: vs control groups; FIG. 2D. As to the method: T cell effector function analysis: We measured cytokine and cytolytic granule production (IFNγ, GZMB and TNFα) of CD8+ T cells from mouse tumor samples and tumor organoid-T cell co-culture. Briefly, CD8+ T cells were placed into the 24-well plate at 1×10^6 cells/well, stimulated with 1 μM ionomycin and 50 ng ml-1 phorbol 12-myristate 13-acetate (PMA) (Sigma-Aldrich) for 4 h, in the presence of 5 μg ml-1 Brefeldin A (BFA), with the purpose to amplify the expression of intracellular cytokines61. The cells were stained with APC/Cy7-conjugated anti-CD8a (Biolegend) for 15 min and then fixed by 4% PFA. After washing, cells were stained with PerCP/Cy7-conjugated anti-GZMB, APC-conjugated anti-IFNγ and PE-conjugated anti-TNFα (Biolegend) for 15 min. In flow cytometric analyses, T cells stained with isotype control antibodies were used as negative controls for gating the cytokine or granule-producing cells. For T cells from tumor organoid-T cell co-culture, tumor organoids were first digested into single cells with TrypLE Express at 37° C. before APC/Cy7-conjugated anti-CD8a staining. In the IFNγ and TNFα secretion assay (Biolegend), T cells were stimulated with ionomycin and PMA without the presence of BFA. The media were collected for ELISA assay.

For another assay, the system named is OVA+ EO771 cells. Briefly: H-2Kb presentation on OVA+ EO771 cells (flow cytometry, confocal). It counts as cell-based, mouse. Conditions: for H-2Kb antigen presentation (confocal images): 1 μM, 48 h, FIG. 4E; for H-2Kb levels on EO771 cells (MFI): flow cytometry. As for the experimental part:
(§1) Flow Cytometry: Sample acquisition was done using LSR Fortessa X-20 or LSR Fortessa (BD Biosciences) and data were analyzed using FlowJo v10.6.0 software. Live/dead cells were assessed using SYTOX Blue (Invitrogen, Dilution 1:100). For cell staining involving cell permeabilization, the BD cytofix/cytoperm fixation permeabilization kit (BD Biosciences) was used. The PBS buffer containing 0.5% BSA and 10% FBS were used to dilute antibodies. The antibodies used in flow cytometrical analyses include: […] The compensation was performed using CompBeads for negative control (BD Biosciences), anti-mouse Ig,κ (BD Biosciences), anti-rat Ig,κ and anti-hamster Ig,κ (BD Biosciences). The beads were stained with the corresponding antibodies separately under the same conditions as the cells were stained in each experiment. SYTOX Blue reagent was used to stain dead cells. Half of the live cells were incubated at 60° C. for 2 min to enable membrane permeable and then mixed with the other half incubated at 37° C. The mixed cells were stained with SYTOX Blue for 15 mins and used for compensation. For all the data analysis, doublet exclusion was performed and only single cells were analyzed. Dead cell populations were also excluded from analysis if the experiment were not involved in cell killing. One million events per sample were collected for immune profiling analysis in the animal experiments. For all in vitro experiments, at least ten thousand events per sample were collected for flow cytometry analysis. Confocal Microscopy: OVA+ EO771 and NY-ESO-1+ MDA-MB-468 cells were seeded at 5×10^3 cell/well in the 8-well slide (Millicell EZ slide, […]) and treated with 1 μM drug (GSK-LSD1, CUDC-101 or BML-210) for 48 h. FITC-conjugated anti-mouse H-2Kb antibody (Biolegend, dilution 1:50) and FITC-conjugated anti-HLA-A2 (Biolegend, dilution 1:50) were used to stain OVA+ EO771 and NY-ESO-1+ MDA-MB-468 cells, respectively, for 2 h. For cell nucleus staining, cells were incubated with 0.5% Triton X-100/PBS for 10 min and stained with DAPI (Sigma-Aldrich, dilution 1:100) for 15 min. The slides were rinsed in PBS twice and mounted with ProLong Gold anti-fade mountant (Invitrogen, P36930). Fluorescence images were captured using Leica TCS SP8 (upright high speed multiphoton) confocal imaging system. 3-D images were analyzed by the Imaris x64 8.1.2 software.

Assay [3] has as its system NY-ESO-1+ MDA-MB-468 cells. Briefly: HLA presentation on NY-ESO-1+ MDA-MB-468 cells (flow cytometry, confocal). It counts as cell-based, human. The note with it: for HLA-A2 antigen presentation (confocal images): 1 μM, 48 h, FIG. 4F; for HLA levels on MDA-MB-468 cells (MFI): flow cytometry. As for the experimental part:
as §1

As for `Nc1ccccc1NC(=O)CCCCCCC(=O)Nc1ccccc1` [BML-210], in assay [1], the “effect on the tumor organoids in the absence of T cells” value (“effect on the tumor organoids” for short) is “no notable effect”. In addition, in assay [2], the “GZMB, IFNγ and TNFα expression levels in the CD8+ T cells” value (from here on “GZMB, IFNγ and TNFα expression levels”) is listed as “much higher”. In the assay on OVA+ EO771 cells, the “H-2Kb antigen presentation (confocal images)” value (from here on “H-2Kb antigen presentation”) is “boosted up the antigen presentation” and the “H-2Kb levels on EO771 cells (MFI)” value is on record as “much higher levels”. In assay [3], the “HLA-A2 antigen presentation (confocal images)” value (shortened to “HLA-A2 antigen presentation”) is on record as “boosted up the antigen presentation” and the “HLA levels on MDA-MB-468 cells (MFI)” value was “much higher levels”.
On to `C#Cc1cccc(Nc2ncnc3cc(OC)c(OCCCCCCC(=O)NO)cc23)c1` [CUDC-101], for which, in assay [1], the “effect on the tumor organoids” value is reported as “no notable effect”. For the same molecule, the “GZMB, IFNγ and TNFα expression levels” value in assay [2] was “much higher”. In the assay on OVA+ EO771 cells, the “H-2Kb antigen presentation” value is on record as “boosted up the antigen presentation” and the “H-2Kb levels on EO771 cells (MFI)” value is recorded as “increased”. Further, in assay [3], the “HLA-A2 antigen presentation” value is “boosted up the antigen presentation” and the “HLA levels on MDA-MB-468 cells (MFI)” value was “increased”.
As to `c1ccc([C@@H]2C[C@H]2NC2CCNCC2)cc1` [GSK-LSD1], in assay [1], the “effect on the tumor organoids” value was “no notable effect”. The “GZMB, IFNγ and TNFα expression levels” value in assay [2] was “much higher”. Besides, in the assay on OVA+ EO771 cells, the “H-2Kb antigen presentation” value is listed as “boosted up the antigen presentation” and the “H-2Kb levels on EO771 cells (MFI)” value was “increased”. Moreover, in assay [3], the “HLA-A2 antigen presentation” value is “boosted up the antigen presentation” and the “HLA levels on MDA-MB-468 cells (MFI)” value is “increased”.
